{
  "source": "the supplement of paper PMC10307832",
  "experiment_in_all_cases": "relative viability (nuclei count vs DMSO), 5 days (fraction); higher = more cells survive",
  "key": {"201T": {"tested_on": "201T", "in_short": "(§1)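 Lung cancer cell lines in 1536-well plates got either a single drug or a fixed anchor-drug dose together with five library-drug doses (not always all listed) in √10 steps, by pin tool, on the day after seeding. Nuclei were counted after 5 days, and relative viability is the treated-to-vehicle ratio of nuclei counts. Values are medians of duplicate plates.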"}, "COR-L 105": {"tested_on": "COR-L 105", "in_short": "as §1"}, "ChaGo-K-1": {"tested_on": "ChaGo-K-1", "in_short": "as §1"}, "EPLC-272H": {"tested_on": "EPLC-272H", "in_short": "as §1"}, "H3255": {"tested_on": "H3255", "in_short": "as §1"}, "HCC-78": {"tested_on": "HCC-78", "in_short": "as §1"}, "HCC-827": {"tested_on": "HCC-827", "in_short": "as §1"}, "LC-2-ad": {"tested_on": "LC-2-ad", "in_short": "as §1"}, "LCLC-97TM1": {"tested_on": "LCLC-97TM1", "in_short": "as §1"}, "NCI-H1666": {"tested_on": "NCI-H1666", "in_short": "as §1"}, "NCI-H1915": {"tested_on": "NCI-H1915", "in_short": "as §1"}, "NCI-H2087": {"tested_on": "NCI-H2087", "in_short": "as §1"}},
  "data": [
    {"compound": "C=C1C(=O)O[C@@H](CCCCCCCC)[C@@H]1C(=O)O", "note": "[C-75] + Cc1cc(Nc2cc(N3CCN(C)CC3)nc(Sc3ccc(NC(=O)C4CC4)cc3)n2)n[nH]1 [Tozasertib] (partner 0.1 µM)", "values": [
      {"measurement": "relative viability", "setting": "201T; first compound 0.08 µM", "value": 0.985},
      {"measurement": "relative viability", "setting": "201T; first compound 0.253 µM", "value": 1.12},
      {"measurement": "relative viability", "setting": "201T; first compound 0.8 µM", "value": 1.04},
      {"measurement": "relative viability", "setting": "201T; first compound 2.53 µM", "value": 0.932},
      {"measurement": "relative viability", "setting": "201T; first compound 8 µM", "value": 1.02},
      {"measurement": "relative viability", "setting": "COR-L 105; first compound 0.08 µM", "value": 0.366},
      {"measurement": "relative viability", "setting": "COR-L 105; first compound 0.253 µM", "value": 0.167},
      {"measurement": "relative viability", "setting": "COR-L 105; first compound 0.8 µM", "value": 0.412},
      {"measurement": "relative viability", "setting": "COR-L 105; first compound 2.53 µM", "value": 0.351},
      {"measurement": "relative viability", "setting": "COR-L 105; first compound 8 µM", "value": 0.341},
      {"measurement": "relative viability", "setting": "ChaGo-K-1; first compound 0.08 µM", "value": 0.215},
      {"measurement": "relative viability", "setting": "ChaGo-K-1; first compound 0.253 µM", "value": 0.223},
      {"measurement": "relative viability", "setting": "ChaGo-K-1; first compound 0.8 µM", "value": 0.196},
      {"measurement": "relative viability", "setting": "ChaGo-K-1; first compound 2.53 µM", "value": 0.195},
      {"measurement": "relative viability", "setting": "ChaGo-K-1; first compound 8 µM", "value": 0.231},
      {"measurement": "relative viability", "setting": "EPLC-272H; first compound 0.08 µM", "value": 0.299},
      {"measurement": "relative viability", "setting": "EPLC-272H; first compound 0.253 µM", "value": 0.243},
      {"measurement": "relative viability", "setting": "EPLC-272H; first compound 0.8 µM", "value": 0.22},
      {"measurement": "relative viability", "setting": "EPLC-272H; first compound 2.53 µM", "value": 0.25},
      {"measurement": "relative viability", "setting": "EPLC-272H; first compound 8 µM", "value": 0.208},
      {"measurement": "relative viability", "setting": "H3255; first compound 0.08 µM", "value": 0.609},
      {"measurement": "relative viability", "setting": "H3255; first compound 0.253 µM", "value": 0.856},
      {"measurement": "relative viability", "setting": "H3255; first compound 0.8 µM", "value": 0.505},
      {"measurement": "relative viability", "setting": "H3255; first compound 2.53 µM", "value": 0.701},
      {"measurement": "relative viability", "setting": "H3255; first compound 8 µM", "value": 0.751},
      {"measurement": "relative viability", "setting": "HCC-78; first compound 0.08 µM", "value": 0.431},
      {"measurement": "relative viability", "setting": "HCC-78; first compound 0.253 µM", "value": 0.505},
      {"measurement": "relative viability", "setting": "HCC-78; first compound 0.8 µM", "value": 0.458},
      {"measurement": "relative viability", "setting": "HCC-78; first compound 2.53 µM", "value": 1.28},
      {"measurement": "relative viability", "setting": "HCC-78; first compound 8 µM", "value": 0.444},
      {"measurement": "relative viability", "setting": "HCC-827; first compound 0.08 µM", "value": 0.428},
      {"measurement": "relative viability", "setting": "HCC-827; first compound 0.253 µM", "value": 0.413},
      {"measurement": "relative viability", "setting": "HCC-827; first compound 0.8 µM", "value": 0.431},
      {"measurement": "relative viability", "setting": "HCC-827; first compound 2.53 µM", "value": 0.379},
      {"measurement": "relative viability", "setting": "HCC-827; first compound 8 µM", "value": 0.411},
      {"measurement": "relative viability", "setting": "LC-2-ad; first compound 0.08 µM", "value": 0.515},
      {"measurement": "relative viability", "setting": "LC-2-ad; first compound 0.253 µM", "value": 0.503},
      {"measurement": "relative viability", "setting": "LC-2-ad; first compound 0.8 µM", "value": 0.443},
      {"measurement": "relative viability", "setting": "LC-2-ad; first compound 2.53 µM", "value": 0.418},
      {"measurement": "relative viability", "setting": "LC-2-ad; first compound 8 µM", "value": 0.399},
      {"measurement": "relative viability", "setting": "LCLC-97TM1; first compound 0.08 µM", "value": 0.23},
      {"measurement": "relative viability", "setting": "LCLC-97TM1; first compound 0.253 µM", "value": 0.319},
      {"measurement": "relative viability", "setting": "LCLC-97TM1; first compound 0.8 µM", "value": 0.22},
      {"measurement": "relative viability", "setting": "LCLC-97TM1; first compound 2.53 µM", "value": 0.16},
      {"measurement": "relative viability", "setting": "LCLC-97TM1; first compound 8 µM", "value": 0.187},
      {"measurement": "relative viability", "setting": "NCI-H1666; first compound 0.08 µM", "value": 0.653},
      {"measurement": "relative viability", "setting": "NCI-H1666; first compound 0.253 µM", "value": 0.66},
      {"measurement": "relative viability", "setting": "NCI-H1666; first compound 0.8 µM", "value": 0.647},
      {"measurement": "relative viability", "setting": "NCI-H1666; first compound 2.53 µM", "value": 0.613},
      {"measurement": "relative viability", "setting": "NCI-H1666; first compound 8 µM", "value": 0.499},
      {"measurement": "relative viability", "setting": "NCI-H1915; first compound 0.08 µM", "value": 0.405},
      {"measurement": "relative viability", "setting": "NCI-H1915; first compound 0.253 µM", "value": 0.403},
      {"measurement": "relative viability", "setting": "NCI-H1915; first compound 0.8 µM", "value": 0.432},
      {"measurement": "relative viability", "setting": "NCI-H1915; first compound 2.53 µM", "value": 0.409},
      {"measurement": "relative viability", "setting": "NCI-H1915; first compound 8 µM", "value": 0.429},
      {"measurement": "relative viability", "setting": "NCI-H2087; first compound 0.08 µM", "value": 0.245},
      {"measurement": "relative viability", "setting": "NCI-H2087; first compound 0.253 µM", "value": 0.294}
    ]}
  ]
}
